From patent US20240390386A1, “CDK8/19 INHIBITORS FOR PREVENTING DRUG RESISTANCE” (University of South Carolina, priority 2021, published 2024)
Read-outs that look alike come from different tables or passages of the source.

Key:
panel of 468 kinases = conditions: 2000 nM; cited from earlier work
MDA-MB-468 xenografts = conditions: for effect on tumor growth: SNX631 350 ppm medicated food
PEN027 PDX tumors = conditions: for effect on event-free survival (KM): 38 days of treatment, event: tumor 2,000 mm^3 or euthanasia; for effect on tumor volume: first 10 days of treatment, everolimus 2 mg/kg daily gavage, SNX631-6 500 ppm food
[1] = everolimus 2 mg/kg daily gavage

## CN(C)C(=O)c1ccc(N2CCCN(c3ccnc4sc(C(N)=O)c(N)c34)CC2)cc1 [SNX631, 3-amino-4-(4-(4 (dimethylcarbamoyl)phenyl)-1,4-diazepan-1-yl)thieno[2,3-b]pyridine-2-carboxamide]
Panel of 468 kinases
  S(10) S-score: < 0.004
  S(35) S-score: less than 0.02
MDA-MB-468 xenografts; SNX631 350 ppm food, everolimus 2 mg/kg daily gavage
  tolerability based on mouse body weights: very well tolerated
MDA-MB-468 xenografts; [1]
  effect on tumor growth: modest effect on tumor growth

## [2H]C([2H])([2H])N(C(=O)c1ccc(N2CCCN(c3ccnc4sc(C(N)=O)c(N)c34)CC2)cc1)C([2H])([2H])[2H] [SNX631-6, 3-amino-4-(4-(4-(bis(methyl-d3)carbamoyl)phenyl)-1,4-diazepan-1-yl)thieno[2,3-b]pyridine-2-carboxamide]
PEN027 PDX tumors
  effect on event-free survival (KM): only a moderate effect on survival
  effect on tumor volume: significantly inhibited tumor volume
PEN027 PDX tumors; surviving mice
  toxicity based on body weight changes: lack of significant toxicity
PEN061 PDX TNBC model; SNX631-6 350 ppm food, everolimus 3 mg/kg daily gavage
  toxicity based on average mouse body weights: lack of significant toxicity
PEN061 PDX TNBC model; after 63 days of treatment, SNX631-6 350 ppm food, everolimus 3 mg/kg daily gavage
  effect on tumor growth: strongly inhibited tumor growth

## CO[C@H]1C[C@@H]2CC[C@@H](C)[C@@](O)(O2)C(=O)C(=O)N2CCCC[C@H]2C(=O)O[C@H]([C@H](C)C[C@@H]2CC[C@@H](OCCO)[C@H](OC)C2)CC(=O)[C@H](C)/C=C(\C)[C@@H](O)[C@@H](OC)C(=O)[C@H](C)C[C@H](C)/C=C/C=C/C=C/1C [everolimus, reference compound]
MDA-MB-468 xenografts; 150 days of study, tumor volumes and KM event-free survival (event: 500 mm^3)
  development of in vivo resistance to everolimus: all the tumors developed everolimus resistance
MDA-MB-468 xenografts; [1]
  effect on tumor growth: fully suppressed xenograft growth
  duration of full suppression of xenograft growth before resistance: ~50 days of treatment
PEN027 PDX tumors
  effect on event-free survival (KM): strong effect
  effect on tumor volume: significantly inhibited tumor volume
PEN027 PDX tumors; mouse, in vivo
  toxicity based on body weight changes: lack of significant toxicity
PEN061 PDX TNBC model; continued up to 158 days
  development of resistance: many of the tumors treated with everolimus alone developed resistance
